Target: T1, human recombinant mGluR5 (Homo sapiens, UniProt P41594)
T1 construct: expressed in transfected cells; host or cells: HEK 293 cell line, cultured with tetracycline, hygromycin and geneticin; tetracycline is withdrawn 3-7 days before the assay
Assay: positive modulation of mGluR5, calcium based FLIPR assay
Assay type: cell-based
Conditions: EC50 of the modulation; HEK 293 cell line expressing human recombinant mGluR5; peak height of Ca fluorescence signal after glutamate at approx. 5% basal stimulation; read-out: EC50
Procedure, shortened: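 HEK 293 cells expressing human recombinant mGluR5, tetracycline-free before assay, loaded with Calcium-4 dye in Ringer solution pH 7.4. Compounds (1% DMSO final) added for 5 min, then glutamate at about 5% of maximal effect; FLIPR peak Ca signal scaled between 1% DMSO (100%) and 10 μM CDPPB (200%) controls, EC50 by nonlinear regression.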

T1 sequence (P41594 21-1212): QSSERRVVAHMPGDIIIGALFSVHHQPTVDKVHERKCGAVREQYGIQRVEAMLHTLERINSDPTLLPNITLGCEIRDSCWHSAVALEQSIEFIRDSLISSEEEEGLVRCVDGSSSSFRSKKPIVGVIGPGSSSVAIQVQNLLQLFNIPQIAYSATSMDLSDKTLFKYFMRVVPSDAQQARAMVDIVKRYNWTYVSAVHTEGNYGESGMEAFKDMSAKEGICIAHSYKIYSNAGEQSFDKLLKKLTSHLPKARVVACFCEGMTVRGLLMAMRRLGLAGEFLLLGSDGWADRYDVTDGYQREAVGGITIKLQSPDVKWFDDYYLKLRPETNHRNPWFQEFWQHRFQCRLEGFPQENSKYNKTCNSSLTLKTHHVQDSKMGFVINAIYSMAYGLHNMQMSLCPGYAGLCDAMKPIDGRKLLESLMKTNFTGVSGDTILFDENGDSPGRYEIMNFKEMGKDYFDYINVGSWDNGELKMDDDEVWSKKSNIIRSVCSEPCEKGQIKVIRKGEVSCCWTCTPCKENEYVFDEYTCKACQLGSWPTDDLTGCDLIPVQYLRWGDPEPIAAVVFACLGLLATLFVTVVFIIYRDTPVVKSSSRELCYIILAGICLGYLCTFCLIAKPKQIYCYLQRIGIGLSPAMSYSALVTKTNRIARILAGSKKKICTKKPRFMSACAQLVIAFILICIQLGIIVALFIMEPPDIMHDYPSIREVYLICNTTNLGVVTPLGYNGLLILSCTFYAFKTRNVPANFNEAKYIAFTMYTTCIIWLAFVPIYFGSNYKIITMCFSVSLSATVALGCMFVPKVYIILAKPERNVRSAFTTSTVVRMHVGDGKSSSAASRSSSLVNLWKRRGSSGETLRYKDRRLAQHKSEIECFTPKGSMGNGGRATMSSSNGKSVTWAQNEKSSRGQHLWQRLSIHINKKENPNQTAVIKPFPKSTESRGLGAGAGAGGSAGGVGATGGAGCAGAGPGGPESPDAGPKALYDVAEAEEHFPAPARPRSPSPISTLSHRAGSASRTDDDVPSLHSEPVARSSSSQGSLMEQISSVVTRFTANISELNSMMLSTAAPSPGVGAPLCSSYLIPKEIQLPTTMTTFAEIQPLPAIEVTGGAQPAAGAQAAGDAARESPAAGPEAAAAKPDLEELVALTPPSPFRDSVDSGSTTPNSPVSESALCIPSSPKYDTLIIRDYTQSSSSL

SMILES | EC50 [nM]
Cc1nnc(N2CCN(C(=O)Cn3nc(-c4ccc(F)cc4)nc3-c3ccc(F)cc3)CC2)o1 [Example 7.03.045.] | 155
O=C(Cn1nc(-c2ccc(F)cc2)nc1-c1ccc(F)cc1)N1CCN(c2nccs2)CC1 [Example 7.03.048.] | 88
Nc1nc2c(s1)CCN(C(=O)Cn1nc(-c3ccccc3)nc1-c1ccccc1)CC2 [Example 7.03.049.] | 1440
COc1ccc(-c2nc(-c3ccccc3)n(CC(=O)N3Cc4nc(C)sc4C3)n2)cc1 [Example 7.03.050.] | 338
COc1ccc(-c2nc(-c3ccccc3)n(CC(=O)N3CCc4nc(N)sc4CC3)n2)cc1 [Example 7.03.051.] | 282
COc1ccc(-c2nc(-c3ccccc3)n(CC(=O)N3CCc4nc(C)oc4C3)n2)cc1 [Example 7.03.052.] | 323
COc1ccc(-c2nc(-c3ccc(F)cc3)nn2CC(=O)N2CCc3nc(N)sc3CC2)cc1 [Example 7.03.057.] | 187
Cc1nc2c(o1)CN(C(=O)Cn1nc(-c3ccc(F)c(C)c3)nc1C1CCCCC1)CC2 [Example 7.03.059.] | 540
Cc1cc(-c2nc(C3CCCCC3)n(CC(=O)N3CCc4nc(N)sc4CC3)n2)ccc1F [Example 7.03.061.] | 369
Cc1nc2c(s1)CCN(C(=O)Cn1nc(-c3ccc(F)c(C)c3)nc1C1CCCCC1)CC2 [Example 7.03.062.] | 155
Cc1nc2c(s1)CCN(C(=O)Cn1nc(-c3ccc(F)c(C)c3)nc1-c1ccccc1)CC2 [Example 7.03.063.] | 60
Cc1cc(-c2nc(-c3ccccc3)n(CC(=O)N3CCc4nc(N)sc4CC3)n2)ccc1F [Example 7.03.065.] | 95
CCCc1nc(-c2ccc(F)c(C)c2)nn1CC(=O)N1CCc2nc(C)sc2CC1 [Example 7.03.070.] | 457
CCCc1nc(-c2ccc(F)c(C)c2)nn1CC(=O)N1Cc2nc(C)sc2C1 [Example 7.03.071.] | 1170
CCCc1nc(-c2ccc(F)c(C)c2)nn1CC(=O)N1CCc2nc(N)sc2CC1 [Example 7.03.072.] | 407
Cc1cc(-c2nc(C(C)C)n(CC(=O)N3CCc4nc(N)sc4CC3)n2)ccc1F [Example 7.03.073.] | 1170
Cc1nc2c(s1)CCN(C(=O)Cn1nc(-c3ccc(F)c(C)c3)nc1C(C)C)CC2 [Example 7.03.074.] | 321
Cc1cc(-c2nc(C(C)C)n(CC(=O)N3CC=C(c4ccccn4)CC3)n2)ccc1F [Example 7.03.075.] | 1090
Cc1ccnc(C2=CCN(C(=O)Cn3nc(-c4ccc(F)c(C)c4)nc3C(C)C)CC2)c1 [Example 7.03.078.] | 803

SMILES | EC50 [nM]
COc1ccnc(C2=CCN(C(=O)Cn3nc(-c4ccc(F)c(C)c4)nc3C(C)C)CC2)c1 [Example 7.03.079.] | 545
CCc1nc(-c2ccc(F)c(C)c2)nn1CC(=O)N1CCc2nc(N)sc2CC1 [Example 7.03.082.] | 1890
CCC(C)c1nc(-c2ccc(F)c(C)c2)nn1CC(=O)N1CCc2nc(N)sc2CC1 (stereo not shown) [Example 7.03.085.] | 644
CCC(C)c1nc(-c2ccc(F)c(C)c2)nn1CC(=O)N1CCc2nc(C)sc2CC1 (stereo not shown) [Example 7.03.086.] | 379
Cc1nc2c(s1)CCN(C(=O)Cn1nc(-c3ccc(F)c(C)c3)nc1C1CCC(C)CC1)CC2 (stereo not shown) [Example 7.03.090.] | 420
Cc1cc(-c2nc(C3CCC(C)CC3)n(CC(=O)N3CCc4nc(N)sc4CC3)n2)ccc1F (stereo not shown) [Example 7.03.092.] | 1160
Cc1nc2c(s1)CCN(C(=O)Cn1nc(-c3ccc(F)c(C)c3)nc1C1CCCCC1C)CC2 (stereo not shown) [Example 7.03.093.] | 433
Cc1cc(-c2nc(C3CCCCC3C)n(CC(=O)N3CCc4nc(N)sc4CC3)n2)ccc1F (stereo not shown) [Example 7.03.094.] | 1090
Cc1cc(-c2nc(C3CCCC(C)C3)n(CC(=O)N3CCc4nc(N)sc4CC3)n2)ccc1F (stereo not shown) [Example 7.03.095.] | 610
Cc1nc2c(s1)CCN(C(=O)Cn1nc(-c3ccc(F)c(C)c3)nc1C1CCCC(C)C1)CC2 (stereo not shown) [Example 7.03.096.] | 355
Cc1nc2c(s1)CCN(C(=O)Cn1nc(-c3ccc(F)c(C)c3)nc1C1CCC(F)(F)CC1)CC2 [Example 7.03.097.] | 502
Cc1nc2c(s1)CCN(C(=O)Cn1nc(-c3ccc(F)c(C)c3)nc1CC(C)C)CC2 [Example 7.03.098.] | 226
Cc1cc(-c2nc(CC(C)C)n(CC(=O)N3CCc4nc(N)sc4CC3)n2)ccc1F [Example 7.03.099.] | 269
CCCCc1nc(-c2ccc(F)c(C)c2)nn1CC(=O)N1CCc2nc(N)sc2CC1 [Example 7.03.102.] | 293
CCCCc1nc(-c2ccc(F)c(C)c2)nn1CC(=O)N1CCc2nc(C)sc2CC1 [Example 7.03.103.] | 113
Cc1cc(-c2nc(C3CCCC3)n(CC(=O)N3CCc4nc(N)sc4CC3)n2)ccc1F [Example 7.03.106.] | 251
Cc1nc2c(s1)CCN(C(=O)Cn1nc(-c3ccc(F)c(C)c3)nc1C1CCCC1)CC2 [Example 7.03.107.] | 63
CCCCCc1nc(-c2ccc(F)c(C)c2)nn1CC(=O)N1Cc2nc(C)sc2C1 [Example 7.03.108.] | 201
Cc1cc(-c2nc(CCC(C)C)n(CC(=O)N3CCc4nc(N)sc4CC3)n2)ccc1F [Example 7.03.112.] | 147

Continued by falling EC50, values first:

EC50 [nM] | SMILES
1710 | Cc1cc(-c2nc(C(C)C)n(CC(=O)N3CC=C(c4ncccn4)CC3)n2)ccc1F [Example 7.03.076.]
1680 | Cc1nc2c(s1)CN(C(=O)Cn1nc(-c3ccc(F)c(C)c3)nc1C1CCC(C)CC1)C2 (stereo not shown) [Example 7.03.091.]
1140 | COc1cnc(C2=CCN(C(=O)Cn3nc(-c4ccc(F)c(C)c4)nc3C(C)C)CC2)nc1 [Example 7.03.080.]
870 | Cc1nc2c(s1)CN(C(=O)Cn1nc(-c3ccc(F)c(C)c3)nc1C1CCCC1)C2 [Example 7.03.105.]
679 | COc1cccc(N2CCN(C(=O)Cn3nc(-c4ccc(F)c(C)c4)nc3C3CCCC3)CC2=O)c1 [Example 7.03.104.]
647 | Cc1nc2c(s1)CCN(C(=O)Cn1nc(-c3ccc(F)c(C)c3)nc1C)CC2 [Example 7.03.087.]
574 | COc1cc(-c2nc(-c3ccc(F)cc3)nn2CC(=O)N2CCc3nc(C)sc3CC2)ccc1F [Example 7.03.069.]
500 | COc1cc(C2=CCN(C(=O)Cn3nc(-c4ccc(F)c(C)c4)nc3C(C)C)CC2)ncn1 [Example 7.03.077.]
422 | CCCCCc1nc(-c2ccc(F)c(C)c2)nn1CC(=O)N1CCN(c2cccc(OC)c2)C(=O)C1 [Example 7.03.109.]
413 | CCc1nc(-c2ccc(F)c(C)c2)nn1CC(=O)N1CCc2nc(C)sc2CC1 [Example 7.03.081.]
392 | Cc1nc2c(s1)CCN(C(=O)Cn1nc(-c3ccc(F)cn3)nc1-c1ccc(F)cc1)CC2 [Example 7.03.116.]
382 | CCCCc1nc(-c2ccc(F)c(C)c2)nn1CC(=O)N1Cc2nc(C)sc2C1 [Example 7.03.101.]
356 | O=C(Cn1nc(-c2ccc(F)cc2)nc1-c1ccc(F)cc1)N1CCN(C2=NCCS2)CC1 [Example 7.03.046.]
340 | Cc1nc2c(s1)CN(C(=O)Cn1nc(-c3ccc(F)c(C)c3)nc1CCC(C)C)C2 [Example 7.03.113.]
302 | CCCCc1nc(-c2ccc(F)c(C)c2)nn1CC(=O)N1CCN(c2cccc(OC)c2)C(=O)C1 [Example 7.03.100.]
255 | Cc1nc2c(s1)CN(C(=O)Cn1nc(-c3ccc(F)c(C)c3)nc1C1CCCCC1)C2 [Example 7.03.060.]

EC50 [nM] | SMILES
242 | COc1ccc(-c2nc(-c3ccccc3)n(CC(=O)N3CCN(c4ccccn4)C(=O)C3)n2)cc1 [Example 7.03.053.]
231 | Nc1nc2c(s1)CCN(C(=O)Cn1nc(-c3ccc(F)cn3)nc1-c1ccc(F)cc1)CC2 [Example 7.03.115.]
140 | O=C(Cn1nc(-c2ccc(F)cc2)nc1-c1ccc(F)cc1)N1CCN(c2nc3ccccc3o2)CC1 [Example 7.03.047.]
117 | COc1ccc(-c2nc(-c3ccc(F)cc3)nn2CC(=O)N2CCc3nc(C)sc3CC2)cc1 [Example 7.03.058.]
102 | Cc1nc2c(s1)CCN(C(=O)Cn1nc(-c3ccc(F)c(C)c3)nc1CCC(C)C)CC2 [Example 7.03.114.]
100 | COc1ccc(-c2nc(-c3ccc(F)cc3)n(CC(=O)N3CCc4nc(N)sc4CC3)n2)cc1 [Example 7.03.055.]
97 | COc1ccc(-c2nc(-c3ccccc3)n(CC(=O)N3CCc4nc(C)sc4CC3)n2)cc1 [Example 7.03.054.]
90 | CCCCCc1nc(-c2ccc(F)c(C)c2)nn1CC(=O)N1CCc2nc(N)sc2CC1 [Example 7.03.111.]
86 | Cc1nc2c(o1)CN(C(=O)Cn1nc(-c3ccc(F)c(C)c3)nc1-c1ccccc1)CC2 [Example 7.03.064.]
71 | Cc1nc2c(s1)CN(C(=O)Cn1nc(-c3ccc(F)c(C)c3)nc1-c1ccccc1)C2 [Example 7.03.066.]
71 | COc1cc(-c2nc(-c3ccc(F)cc3)n(CC(=O)N3CCc4nc(C)sc4CC3)n2)ccc1F [Example 7.03.089.]
64 | Cc1cc(-c2nc(-c3ccc(F)c(C)c3)n(CC(=O)N3CCc4nc(N)sc4CC3)n2)ccc1F [Example 7.03.083.]
63 | COc1ccc(-c2nc(-c3ccc(F)cc3)n(CC(=O)N3CCc4nc(C)sc4CC3)n2)cc1 [Example 7.03.056.]
60 | COc1cc(-c2nc(-c3ccc(F)cc3)n(CC(=O)N3CCc4nc(N)sc4CC3)n2)ccc1F [Example 7.03.088.]
55 | CCCCCc1nc(-c2ccc(F)c(C)c2)nn1CC(=O)N1CCc2nc(C)sc2CC1 [Example 7.03.110.]
52 | Cc1nc2c(s1)CCN(C(=O)Cn1nc(-c3ccc(F)c(C)c3)nc1-c1ccc(F)c(C)c1)CC2 [Example 7.03.084.]
